From PMC9964390, “Design, Synthesis and Phenotypic Profiling of Simplified Gedatolisib Analogues” (Pharmaceuticals, 2023)
Read-outs that look alike come from different tables or passages of the source.

What was measured:
K562 = assay: MTT cell viability assay; format: cell-based; conditions: Homo sapiens, K562, 72 h MTT; for Emax: read-out: Emax (maximum effect at maximum concentration used)
Description: (§1) For the evaluation of cellular cytotoxicity in cancer cell lines, the compounds were tested at concentrations ranging from 0.00003 μM to 150 μM. Immortalized cancer cells were selected: PC-3 (PTEN-mutated prostate adenocarcinoma), MCF-7 (PI3KCA-mutated breast carcinoma), K562 (P53-mutated chronic myeloid leukemia), CCRF-CEM (acute lymphoblastic leukemia with mutation in PTEN) and MOLT-4 (acute lymphoblastic leukemia with mutation in PI3KR1/PTEN). Peripheral blood mononuclear cells (PBMCs) were used to determine the cytotoxic selectivity index (SI). All immortalized cells were cultured in RPMI 1640 medium with 10% (v/v) FBS, streptomycin + penicillin, at 37 °C in a humidified incubator containing 5% CO2.
(§2) Cell viability was assessed by the MTT assay. The lines selected for this study were plated according to their respective densities, which ranged from 3 × 10^4 to 4 × 10^4 cells per well. Subsequently, they were treated with test compounds at different concentrations (0.00003 μM to 150 μM), gedatolisib and GSK-1059615.
(§3) After incubation, the plates are centrifuged at 440× g for 10 min. Then, 110 μL of the supernatant was withdrawn and each well received 10μL of the MTT solution. The plate was again incubated in an oven at 37 °C and 5% CO2 for 3 to 4 h. At the end of the incubation time, 100 μL of SDS-HCL detergent was added to solubilize the formazan crystals. The plate was shaken on an automatic overnight shaker and then read at a wavelength of 595 nm on the Molecular Devices Spectramax M5 plate reader.

MCF7 = assay: MTT cell viability assay; format: cell-based; conditions: Homo sapiens, MCF7, 72 h MTT; for CC50: 95% confidence interval in brackets; for Emax: read-out: Emax (maximum effect at maximum concentration used)
Description: as §1, §2, §3

PC-3 = assay: MTT cell viability assay; format: cell-based; conditions: Homo sapiens, PC-3, 72 h MTT; for CC50: 95% confidence interval in brackets; for Emax: read-out: Emax (maximum effect at maximum concentration used)
Description: as §1, §2, §3

[1] = PBMC viability assay (72 h MTT); format: cell-based, human; set-up: Emax at 72 h: dose or concentration left out as unconfirmed; conditions: human; for viability at 72 h, 0.3 µM: 0.3 µM (printed 0.3M); for viability at 72 h, 3 µM: 3 µM (printed 3M)
Description: Donor blood was collected and EDTA (ethylenediamine tetraacetic acid) was added to the sterile laminar flow in a 1:20 ratio. In a 15 mL falcon tube, 4.5 mL of Ficoll gradient was added, and then 9 mL of blood was added over the gradient in a 1:2 ratio. The tubes were centrifuged for 40 min at a speed of 750× g with an acceleration of 2 and a brake of 0. The ring of mononuclear cells formed was collected and added to a new tube.
Tubes with PBMCs were centrifuged in an incomplete RPMI medium for 10 min at 580× g with an acceleration of 8 and a brake of 9. The supernatant was discarded, and the cells were resuspended in 1 mL of RPMI medium supplemented with 20% […]. PBMCs were added to 96-well plates at a concentration of 1 × 10^5 cells per well. […]
After incubation, each well received 20 µL of MTT (5 mg/mL), followed by incubation for 4 h in the CO2 oven and centrifugation for 12 min at 1200× g. The supernatant from each well was taken, and 100 µL of isopropyl alcohol was added to solubilize the formazan crystals. The absorbance of the plates was measured at 570 nm in the Flex Station equipment.

CCRF-CEM cell line [2] = assay: Muse Annexin V and Dead Cell Kit (phosphatidylserine externalization, membrane integrity); format: cell-based, human; conditions: for reduction of cell viability / total apoptosis: CCRF-CEM, at its CC50 value
Description: (§4) For quantitative analysis of live, early and late apoptosis, and cell death on both the CCRF-CEM and MOLT-4 cell lines, treated with gedatolisib and compound 5f (LASSBio-2252), the Muse® Annexin V and Dead Cell Kit was used. Compounds were studied using three concentrations.
(§5) The Annexin V and Dead Cell Kit (catalog n^o. MCH100105, Luminex) contains Annexin V, a phospholipid marker phosphatidylserine, and the molecule 7-AAD, a DNA marker for cells with a ruptured membrane. […] After incubation for 20 min at room temperature, the samples were read on the cytometer. The data with the histograms generated contain information on the percentage of viable cells, in early apoptosis, late apoptosis and dead cells. Samples from three independent experiments were performed in duplicate, and then statistical analysis was performed using the Prism6 statistical program.

MOLT-4 cell line = assay: as above; format: cell-based, human
Description: as §4, §5

CCRF-CEM cell line [3] = assay: Muse Cell Cycle Kit; format: cell-based, human; conditions: 48 h
Description: The Guava Muse Luminex® Cell Cycle Kit (catalog n^o MCH100106, Luminex) contains the DNA marker propidium iodide (PI) and RNAse A to avoid nonspecific labelling.
After 48 h of incubation in an incubator at 37 °C with 5% CO2, 1 mL of the MOLT-4 cell solution and 500 µL of the CCRF-CEM cell solution, contained in the wells, were transferred to Eppendorf tubes and centrifuged at 300× g for 5 min. The volumes used ensured that the cell density remained within the recommended range (1 × 10^6 to 4 × 10^6 cells/mL) at the end of the 48 h incubation period.
The supernatant was discarded, and the pellet formed was resuspended in 1 mL of saline PBS, homogenised, and centrifuged at 300× g for 5 min. The formed pellet was resuspended in residual PBS by homogenization. To fix cellular events, 1 mL of ice-cold 70% alcohol was added dropwise into the tubes and vortexed at medium speed. The samples were incubated, before staining, for at least 3 h at −20 °C.
At the end of the incubation time at −20 °C, the samples were centrifuged at 300× g for 5 min, and then the supernatant was discarded and resuspended in 250 µL of PBS. The samples were again centrifuged at 300× g for 5 min and the supernatant discarded, which constituted the washing step. The pellet formed was resuspended in 200 µL of the Guava Muse Luminex® Cell Cycle, and the tubes were incubated for 30 min at room temperature, away from light.
After incubation, the samples were read in Guava Muse Luminex®, and the data with the histograms generated, which contain information on the percentage of the different phases of the cell cycle, were analysed in the statistical program Prism6. This methodology was performed in duplicate of three independent experiments.

MOLT-4 = assay: Muse Count & Viability Kit (flow cytometry); conditions: for CC50 / Emax: Homo sapiens; for loss of potency in Muse Count & Viability Kit 72 h versus 72 h MTT: MOLT-4
Description: Cell viability, cell death pattern, cell cycle and detection of PI3K activation were evaluated, and each analysis was performed using specific protocols of the Guava Muse Cell Analyzer.
In total, 20 µL of the cell solution was added to 380 µL of the reagent in 1 mL Eppendorf tubes and incubated for 5 min at room temperature in the dark. Samples from three independent experiments carried out in duplicate were read on the cytometer, followed by statistical analysis of the histograms on Prism6 to determine the CC50.

[4] = PBMC, read-out: % cell viability
[5] = Homo sapiens, CCRF-CEM 48 h, read-out: % of cells, Viable
[6] = peripheral blood mononuclear cells (PBMCs), PBMC, read-out: % cell viability

Compound: c1ccc(N2CCN(c3nc(N4CCCNCC4)nc(N4CCOCC4)n3)CC2)cc1 [5f, 4-(4-(1,4-Diazepan-1-yl)-6-(4-phenylpiperazin-1-yl)-1,3,5-triazin-2-yl)morpholine]
- CC50 (K562; 95% confidence interval in brackets): 23.4 µM
- Emax (K562): 84%
- CC50 (MCF7): 37 µM
- Emax (MCF7): 91%
- CC50 (PC-3): 62.1 µM
- Emax (PC-3): 84%
- Emax at 72 h [1]: 26%
- viability at 72 h, 0.03 µM ([1]; PBMC, 0.03 µM (printed 0.03M), read-out: % cell viability): 92%
- viability at 72 h, 0.3 µM [1, 4]: 88%
- viability at 72 h, 3 µM [1, 4]: 91%
- viability at 72 h, 30 µM ([1]; PBMC, 30 µM (printed 30M), read-out: % cell viability): 75%
- viability at 72 h, 100 µM ([1]; PBMC, 100 µM (printed 100M), read-out: % cell viability): 73%
- reduction of cell viability (CCRF-CEM cell line [2]): about 50%
- total apoptosis (CCRF-CEM cell line [2]): about 50%
- viability at 5 µM (CCRF-CEM cell line [2]; Homo sapiens, CCRF-CEM 48 h, 5 μM, read-out: % of cells, Viable): 87%
- viability at 50 µM (CCRF-CEM cell line [2]; [5]): 47%
- viability at 6 µM (MOLT-4 cell line; Homo sapiens, MOLT-4 48 h, 6 μM, read-out: % de células, Viable): 86%
- viability at 60 µM (MOLT-4 cell line; Homo sapiens, MOLT-4 48 h, 60 μM, read-out: % de células, Viable): 20%
- reduction of the number of viable cells (MOLT-4 cell line; MOLT-4, tested at 10-fold concentration): 80%
- reduction of the number of viable cells (MOLT-4 cell line; MOLT-4, tested at its CC50 value): 14%
- action on the cell cycle (CCRF-CEM cell line [3]; its CC50 value (50 µM)): cell cycle arrest in G0/G1
- CC50 (MOLT-4; MOLT-4, 48 h): 51 µM
- Emax (MOLT-4; MOLT-4, 48 h): 90%
- CC50 (MOLT-4; MOLT-4, 72 h): 60.8 µM
- Emax (MOLT-4; MOLT-4, 72 h): 92%
- loss of potency in Muse Count & Viability Kit 72 h versus 72 h MTT (MOLT-4): ≤ 10 fold

Compound: CN(C)C1CCN(C(=O)c2ccc(NC(=O)Nc3ccc(-c4nc(N5CCOCC5)nc(N5CCOCC5)n4)cc3)cc2)CC1 [Gedatolisib, gedatolisib]
- CC50 (K562; K562, 72 h): > 24 µM
- CC50 (K562; K562, 72 h, 95% confidence interval in brackets): 24.1 µM
- Emax (K562): 64%
- CC50 (MCF7): 0.07 µM
- Emax (MCF7): 87%
- CC50 (PC-3): 0.54 µM
- Emax (PC-3): 80%
- viability at 72 h, 0.0003 µM ([1]; peripheral blood mononuclear cells (PBMCs), PBMC, 0.0003 µM (printed 0.0003M), read-out: % cell viability): 89%
- viability at 72 h, 0.003 µM ([1]; peripheral blood mononuclear cells (PBMCs), PBMC, 0.003 µM (printed 0.003M), read-out: % cell viability): 85%
- viability at 72 h, 0.3 µM [1, 6]: 80%
- viability at 72 h, 3 µM [1, 6]: 85%
- viability at 72 h, 50 µM ([1]; peripheral blood mononuclear cells (PBMCs), PBMC, 50 µM (printed 50M), read-out: % cell viability): 67%
- reduction of cell viability (CCRF-CEM cell line [2]): about 50%
- total apoptosis (CCRF-CEM cell line [2]): about 50%
- viability at 0.6 µM (CCRF-CEM cell line [2]; Homo sapiens, CCRF-CEM 48 h, 0.6 μM, read-out: % of cells, Viable): 68%
- viability at 6 µM (CCRF-CEM cell line [2]; Homo sapiens, CCRF-CEM 48 h, 6 μM, read-out: % of cells, Viable): 55%
- viability at 50 µM (CCRF-CEM cell line [2]; [5]): 7%
- viability at 0.15 µM (MOLT-4 cell line; Homo sapiens, MOLT-4 48 h, 0.15 μM, read-out: % de células, Viable): 10%
- viability at 1.5 µM (MOLT-4 cell line; Homo sapiens, MOLT-4 48 h, 1.5 μM, read-out: % de células, Viable): 11%
- viability at 30 µM (MOLT-4 cell line; Homo sapiens, MOLT-4 48 h, 30 μM, read-out: % de células, Viable): 4%
- reduction of cell viability (MOLT-4 cell line; MOLT-4, concentration 10 times lower than its CC50): 90%
- action on the cell cycle (CCRF-CEM cell line [3]; both concentrations tested (0.6 µM and 6 µM)): cell cycle arrest in the G0/G1 phase
- CC50 (MOLT-4; MOLT-4, 48 h): 1.65 µM
- Emax (MOLT-4; MOLT-4, 48 h): 82%
- CC50 (MOLT-4; MOLT-4, 72 h): 1.15 µM
- Emax (MOLT-4; MOLT-4, 72 h): 86%
- loss of potency in Muse Count & Viability Kit 72 h versus 72 h MTT (MOLT-4): 100 fold
